The target in assay [1] is Muscarinic acetylcholine receptor. The experiment in a line: Compound was evaluated for inhibition of [3H]cis-methyldioxolane binding to label agonist sites (RCMD) in rat neocortex.
The target of assay [2] is T1, Muscarinic receptor M1 and M2 (Rattus norvegicus, UniProt P08482+P10980).
T1 sequence (P08482 whole entry): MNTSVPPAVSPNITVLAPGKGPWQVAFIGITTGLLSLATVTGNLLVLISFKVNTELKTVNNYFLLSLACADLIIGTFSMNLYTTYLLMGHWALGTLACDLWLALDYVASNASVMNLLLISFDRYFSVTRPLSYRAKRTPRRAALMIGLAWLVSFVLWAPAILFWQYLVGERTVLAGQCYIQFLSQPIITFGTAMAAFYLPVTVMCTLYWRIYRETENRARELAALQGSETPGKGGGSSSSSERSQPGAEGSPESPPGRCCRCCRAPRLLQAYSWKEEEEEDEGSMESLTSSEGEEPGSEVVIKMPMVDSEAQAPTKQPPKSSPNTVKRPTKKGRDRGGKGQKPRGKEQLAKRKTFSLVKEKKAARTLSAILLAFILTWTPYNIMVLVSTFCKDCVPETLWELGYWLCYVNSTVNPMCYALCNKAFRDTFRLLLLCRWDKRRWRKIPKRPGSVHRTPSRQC
T1 sequence (P10980 whole entry): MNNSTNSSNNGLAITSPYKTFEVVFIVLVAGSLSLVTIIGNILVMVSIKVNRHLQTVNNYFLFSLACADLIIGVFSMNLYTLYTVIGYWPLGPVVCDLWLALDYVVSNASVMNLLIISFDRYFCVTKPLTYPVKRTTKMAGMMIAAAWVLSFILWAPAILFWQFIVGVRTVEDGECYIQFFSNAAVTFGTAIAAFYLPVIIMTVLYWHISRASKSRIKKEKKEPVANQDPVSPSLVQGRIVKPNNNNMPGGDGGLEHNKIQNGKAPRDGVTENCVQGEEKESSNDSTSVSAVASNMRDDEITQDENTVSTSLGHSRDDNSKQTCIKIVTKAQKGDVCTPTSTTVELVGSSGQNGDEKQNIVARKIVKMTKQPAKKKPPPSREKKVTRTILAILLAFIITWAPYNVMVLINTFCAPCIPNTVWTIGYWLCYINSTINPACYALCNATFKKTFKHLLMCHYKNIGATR
The experiment in a line: Compound was evaluated for its inhibition of [3H]quinuclidinyl benzilate binding to label antagonist site (RQNB) in rat neocortex.

In assay [3] the target is T2, Muscarinic acetylcholine receptor M1 (Homo sapiens, UniProt P11229).
T2 sequence (P11229 whole entry): T1 sequence (P08482 whole entry) with V5A, S254T, S309P, K320R, G337A, V413I
The experiment in a line: Compound was evaluated for its inhibitory activity against human Muscarinic acetylcholine receptor M1 using [3H]quinuclidinyl benzilate to label antagonist site (RQNB) in CHO cells; Not active. Type of assay: cell-based.

The target in assay [4] is T3, Muscarinic acetylcholine receptor M2 (Homo sapiens, UniProt P08172).
T3 sequence (P08172 whole entry): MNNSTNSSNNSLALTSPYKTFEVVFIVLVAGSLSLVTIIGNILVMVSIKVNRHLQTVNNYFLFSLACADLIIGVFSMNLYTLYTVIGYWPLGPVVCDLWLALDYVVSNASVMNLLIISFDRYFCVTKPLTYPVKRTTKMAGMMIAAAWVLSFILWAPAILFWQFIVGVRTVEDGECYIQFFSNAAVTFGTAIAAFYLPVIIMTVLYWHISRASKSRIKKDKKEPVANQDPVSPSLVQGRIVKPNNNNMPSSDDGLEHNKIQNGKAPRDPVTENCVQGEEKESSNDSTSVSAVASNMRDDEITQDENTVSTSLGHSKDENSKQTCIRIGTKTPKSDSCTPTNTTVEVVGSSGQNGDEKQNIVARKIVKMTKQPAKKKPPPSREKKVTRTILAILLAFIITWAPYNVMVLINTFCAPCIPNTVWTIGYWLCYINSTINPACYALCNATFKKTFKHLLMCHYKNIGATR
The experiment in a line: Compound was evaluated for inhibitory activity against human Muscarinic acetylcholine receptor M2 using [3H]quinuclidinyl benzilate to label antagonist site (RQNB) in CHO cells; Not active. It counts as cell-based.

Assay [5] concerns the target T4, Muscarinic acetylcholine receptor M3 (Homo sapiens, UniProt P20309). Type of assay: functional, cell-based, SK-N-SH.
Target sequence in this assay (P20309 whole entry): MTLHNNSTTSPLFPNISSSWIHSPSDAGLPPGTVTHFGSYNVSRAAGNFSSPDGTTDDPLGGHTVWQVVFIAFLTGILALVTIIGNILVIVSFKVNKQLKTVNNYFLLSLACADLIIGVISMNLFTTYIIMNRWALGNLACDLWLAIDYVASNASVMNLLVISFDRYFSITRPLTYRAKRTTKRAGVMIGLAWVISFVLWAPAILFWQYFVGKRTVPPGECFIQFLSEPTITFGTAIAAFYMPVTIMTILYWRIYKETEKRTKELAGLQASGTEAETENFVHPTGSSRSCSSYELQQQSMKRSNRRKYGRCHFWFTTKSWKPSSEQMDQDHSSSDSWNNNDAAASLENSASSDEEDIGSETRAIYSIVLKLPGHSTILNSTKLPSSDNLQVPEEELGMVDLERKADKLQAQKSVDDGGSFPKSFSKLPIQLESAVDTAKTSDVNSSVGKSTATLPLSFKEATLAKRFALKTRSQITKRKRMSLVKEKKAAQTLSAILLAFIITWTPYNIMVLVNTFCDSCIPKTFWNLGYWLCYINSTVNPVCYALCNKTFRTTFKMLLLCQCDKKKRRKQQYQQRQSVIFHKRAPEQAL
Description: Effective concentration for MIPA (muscarinic-stimulated inositol phosphate accumulation) activity in SK-N-SH neuroblastoma cells expressing human muscarinic M3 receptor
Assay [6] has as its target T2, Muscarinic acetylcholine receptor M1. It counts as functional, cell-based, CHO.
Description: Effective concentration for HMPA (human muscarinic inositol phosphate accumulation) activity measured in CHO cells expressing Muscarinic acetylcholine receptor M1
For assay [7], the target named is T5, Muscarinic acetylcholine receptor M1 (Homo sapiens) (UniProt P11229).
T5 sequence (whole entry): T1 sequence (P08482 whole entry) with V5A, S254T, S309P, K320R, G337A, V413I
The settings on record: CHO; at 100 µM.
Description: Evaluated for its HMPA (human muscarinic inositol phosphate accumulation) activity measured in CHO cells expressing Muscarinic acetylcholine receptor M1 compound run at 100 uM

Assay [8] addresses T2, Muscarinic acetylcholine receptor M1. Type of assay: functional, cell-based, CHO. The source holds these as a separate data set.
Description: Inhibitory activity against human Muscarinic acetylcholine receptor M1 using [3H]quinuclidinyl benzilate to label antagonist site (RQNB) in CHO cells
The target of assay [9] is T4, Muscarinic acetylcholine receptor M3. Description: Evaluated for its MIPA (muscarinic-stimulated inositol phosphate accumulation) activity measured in SK-N-SH neuroblastoma cells expressing human muscarinic m3 receptor, compound run at 100 uM;100 uM of carbachol was used. Type of assay: functional, cell-based.
Target sequence in this assay (P20309 whole entry, looked up): as the sequence (P20309 whole entry) above
The target of assay [10] is T3, Muscarinic acetylcholine receptor M2. Description: Inhibitory activity against human Muscarinic acetylcholine receptor M2 using [3H]quinuclidinyl benzilate to label antagonist site (RQNB) in CHO cells. It counts as cell-based.
The target of assay [11] is T4, Muscarinic acetylcholine receptor M3. Description: Evaluated for its MIPA (muscarinic-stimulated inositol phosphate accumulation) activity measured in SK-N-SH neuroblastoma cells expressing human m3 receptor, compound run at 100 uM;100 uM of carbachol was used. It counts as functional, cell-based.
Target sequence in this assay (P20309 whole entry, looked up): as the sequence (P20309 whole entry) above
For assay [12], the target named is T2, Muscarinic acetylcholine receptor M1. Description: Compound was evaluated for its inhibitory activity against human Muscarinic acetylcholine receptor M1 using [3H]quinuclidinyl benzilate to label antagonist site (RQNB) in CHO cells; NA=Not active. It counts as cell-based.
Assay [13] deals with Muscarinic acetylcholine receptors; M1 & M2 (Homo sapiens) (UniProt P11229+P08172). Description: Selectivity ratio for m1 over m2 muscarinic receptors was determined; NA=Not active. It counts as protein assay.
Assay [14] has as its target T3, Muscarinic acetylcholine receptor M2. The experiment in a line: Compound was evaluated for inhibitory activity against human Muscarinic acetylcholine receptor M2 using [3H]quinuclidinyl benzilate to label antagonist site (RQNB) in CHO cells; NA: Not active. It counts as cell-based.
The target is the same in assay [15]. Description: Compound was evaluated for inhibitory activity for Muscarinic acetylcholine receptor M2 using [3H]quinuclidinyl benzilate to label antagonist site (RQNB) in CHO cells. It counts as cell-based.

Where a chain is given by its changes, count along the chain named. Calls of active or inactive are those of the source. The rule behind the calls is not given here.

Muscarinic acetylcholine receptors; M1 & M2 (Homo sapiens), sequence (P11229 whole entry, looked up, one chain of several): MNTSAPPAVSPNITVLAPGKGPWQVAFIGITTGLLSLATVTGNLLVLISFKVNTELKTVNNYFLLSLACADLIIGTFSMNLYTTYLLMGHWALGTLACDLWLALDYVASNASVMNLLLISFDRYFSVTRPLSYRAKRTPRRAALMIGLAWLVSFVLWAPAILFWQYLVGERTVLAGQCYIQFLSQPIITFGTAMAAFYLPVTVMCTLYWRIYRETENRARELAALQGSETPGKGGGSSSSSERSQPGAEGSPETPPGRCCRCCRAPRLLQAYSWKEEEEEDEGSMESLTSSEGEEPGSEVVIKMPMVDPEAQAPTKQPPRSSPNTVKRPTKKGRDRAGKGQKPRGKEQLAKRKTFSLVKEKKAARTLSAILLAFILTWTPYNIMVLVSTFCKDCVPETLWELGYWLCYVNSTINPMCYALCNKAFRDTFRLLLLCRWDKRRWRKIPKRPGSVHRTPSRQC

Turning to `O/N=C1\CN2CCC1C2` (centres undefined), the IC50 in assay [1] was above 0.1 µM; in assay [2], above 1 µM; in assay [3] it was “Not Active”; in assay [4], “Not Active”.

In the case of `CCC#CCO/N=C1\CN2CCC1C2` (centres undefined), the IC50 in [1] is 0.0036 µM; in assay [2] it was 5.976 µM; in [8], 4.9 µM; in assay [10] it was 8.6 µM. In addition, the EC50 in assay [5] was 9.6 µM; in assay [6], 5.9 µM. Besides, the CCh in assay [7] stood at 72%; in assay [9] it was 56%.

On to `Nc1noc(C2CN3CCC2C3)n1` (centres undefined) [OXADIAZOLE], for which the IC50 worked out at 0.0003 µM in assay [1], 0.088 µM in assay [2], 0.4 µM in assay [8] and 0.02 µM in assay [10]. The EC50 was determined as 104 µM in [5] and 100 µM in assay [6]. Besides, the figures for the CCh in assay [7] and in assay [9] were 293% and 0.269%, respectively.

As to `CC#CCO/N=C1\CN2CCC1C2` (centres undefined), the half-maximal inhibitory concentration (IC50) in assay [1] amounted to 0.004 µM; in assay [2], 4.214 µM; in assay [8], 5.81 µM; in [10], 1.7 µM. Moreover, the EC50 in assay [5] was 8.8 µM; in assay [6], 1.9 µM. For the same compound, the figures for the CCh in assay [7] and in assay [11] were 63% and 49%, respectively.

For `C#CCCCO/N=C1\CN2CCC1C2` (centres undefined), the IC50 in assay [1] was 0.111 µM; in [2] it was 3.655 µM; in assay [12], “Not Active”; in assay [14], “Not Active”. In addition, the Ratio result in [13] is “inactive”.

As to `CCCC#CCO/N=C1\CN2CCC1C2` (centres undefined), the IC50 in [1] came out at 0.048 µM; in [2], 8.689 µM; in assay [8] it was 9.64 µM; in assay [15], 20.6 µM.

For `C[N+](C)(C)CC#CCOC(=O)Nc1cccc(Cl)c1.[Cl-]`, the IC50 in assay [1] was 0.025 µM; in assay [2], 5.304 µM; in assay [8], 4 µM; in assay [10], 12.9 µM. Also, in assay [6], the response was half-maximal at 3.5 µM (EC50). Besides, the CCh in assay [7] was found to be 57%; in [11], 3%.

As a reminder, the IC50 is the concentration that inhibits the measured activity by half. High values mean weaker potency, low ones greater potency. As usually defined, the EC50 is the concentration needed to bring the measured effect to its halfway point.

These data come from ChEMBL document CHEMBL1150001, “A rationale for the design and synthesis of m1 selective muscarinic agonists” (Bioorg Med Chem Lett, 1992).
